# Laboratory results published in patent US6509373B1, “Strain of streptomyces, and relevant uses thereof” (Development Center for Biotechnology, priority 1998, dated 2003).
# Tests used:
# Assay in all cases: Antifungal activity of isolated borrelidin in vitro
# P. aphanidermatum = assay type: cell-based; conditions: Pythium aphanidermatum
# Experimental: (§1) 1. The antifungal activity of the isolated borrelidin was tested against P. aphanidermatum, P. splendens, P. sylvaticum, P. capsici and Phytophthora ultimum in vitro.
# (§2) 2. The isolated borrelidin was dissolved in methanol. Pasteurized, molten PDA (50 ml) was allowed to cool to 50° C. and mixed with 0.1 ml of borrelidin in methanol. Each fungal strain was tested at a specific concentration (max. 0.2 mg/l), or diluted concentration. A series of five concentrations was used to determine EC50 (the concentration at which 50% fungal growth is inhibited).
# (§3) 3. PDA medium (50 ml) was mixed with 0.1 ml of borrelidin in methanol.
# (§4) 4. The pathogenic fungi (2 mm mass) were inoculated. A microtitration plate added with methanol was used as control. The inhibition (%) was calculated when the control was fully covered with fungal mass, and EC50 was determined.
# P. capsici = assay type: cell-based; conditions: Phytophthora capsici
# Experimental: as §1, §2, §3, §4
# P. splendens = assay type: cell-based, Pythium splendens; conditions: Globisporangium splendens
# Experimental: as §1, §2, §3, §4
# P. sylvaticum = assay type: cell-based, Pythium sylvaticum; conditions: Globisporangium sylvaticum
# Experimental: as §1, §2, §3, §4
# P. ultimum = assay type: cell-based, Pythium ultimum; conditions: Globisporangium ultimum
# Experimental: as §1, §2, §3, §4
# [1] = 0.025 mg/l in PDA, read-out: Growth Inhibition (%)
# [2] = 0.05 mg/l in PDA, read-out: Growth Inhibition (%)
# [3] = 0.2 mg/l in PDA, read-out: Growth Inhibition (%)
# [4] = concentration at which 50% fungal growth is inhibited
smiles,measurement,setting,value
"CC1CC(C)CC(C)C(O)/C(C#N)=C\C=C\CC(C2CCCC2C(=O)O)OC(=O)CC(O)C(C)C1 (centres unmarked) [borrelidin, 2-[7-cyano-8,16-dihydro-9,11,13,15-tetramethyl-18-oxooxacyclooctadeca-4,6(E, Z)-diene-2-yl]cyclopentacarboxylic acid]",inhibition at 0.025 µg/mL,P. aphanidermatum; [1],14%
same,inhibition at 0.05 µg/mL,P. aphanidermatum; [2],45%
same,inhibition at 0.2 µg/mL,P. aphanidermatum; [3],99%
same,EC50,P. aphanidermatum; [4],0.06 µg/mL
same,inhibition at 0.025 µg/mL,P. capsici; [1],41%
same,inhibition at 0.05 µg/mL,P. capsici; [2],70%
same,inhibition at 0.2 µg/mL,P. capsici; [3],92%
same,EC50,P. capsici; [4],0.027 µg/mL
same,inhibition at 0.025 µg/mL,P. splendens; [1],36%
same,inhibition at 0.05 µg/mL,P. splendens; [2],70%
same,inhibition at 0.2 µg/mL,P. splendens; [3],99%
same,EC50,P. splendens; [4],0.03 µg/mL
same,inhibition at 0.025 µg/mL,P. sylvaticum; [1],80%
same,inhibition at 0.05 µg/mL,P. sylvaticum; [2],99%
same,inhibition at 0.2 µg/mL,P. sylvaticum; [3],100%
same,EC50,P. sylvaticum; [4],0.01 µg/mL
same,inhibition at 0.025 µg/mL,P. ultimum; [1],0%
same,inhibition at 0.05 µg/mL,P. ultimum; [2],17%
same,inhibition at 0.2 µg/mL,P. ultimum; [3],83%
same,EC50,P. ultimum; [4],0.1 µg/mL
